The conditions of data set [1]: cited from earlier work.
The nature of data set [2]: Aqueous solubility of avanafil by HPLC at a range of pH values. It counts as physicochemical. To be noted: sodium carbonate buffer, thermodynamic from solid, Solution 10, 0.1N Na2CO3, pH 10.0.
Test in data set [3]: as above
The format is physicochemical. To be noted: thermodynamic from solid. How it is done: A high performance liquid chromatography (HPLC) procedure was used to evaluate the aqueous solubility of avanafil (obtained from Tanabe Seiyaku Co., LTD, purity, 97.0% to 103% with an observed purity of 98.89%; particle diameter, 10-20 microns with median observed particle diameter of 18.47 microns) at a range of pH values. The HPLC conditions were as follows: system, HP Model 1100; analytical column, Supelco Kromasil C8, 4.6 mm×250 mm, 5 μm particle size; assay injection volume, 20 μl; stock stability injection volume, 0.5 μl; needle wash volume, 91 μl; mobile phase flow rate, 1.00 ml/minute; column temperature, 30° C.; detection wavelength 246 nm; flow cell path length, 10 mm; range step 2.00 nm; threshold, 1.00 mAU; stop time, 30 minutes. Solutions 1, 2, 3, 6, 7, 8, 11, and 12 were buffered to pH values of 0.99, 2.00, 3.00, 6.00, 7.00, 8.00, 11.0, and 12.0, respectively, using a phosphate buffer, 0.1M KH2PO4. Solutions 4 and 5 were buffered to pH values of 4.00 and 5.00, respectively, using a sodium acetate buffer, 0.1M NaOAc, while solutions 9 and 10 were respectively buffered to pH values of 9.00 and 10.00 using a sodium carbonate buffer, 0.1M Na2CO3.

We go through 1 compound from patent US10028916B2, “Orally disintegrating dosage form for administration of avanafil, and associated methods of manufacture and use” (Vivus, Inc., priority 2014, dated 2018).

Converted amounts (≈) assume the structure as drawn. Where two headings read alike, the source gives them in different places.

With `COc1ccc(CNc2nc(N3CCC[C@H]3CO)ncc2C(=O)NCc2ncccn2)cc1Cl` [avanafil, 4-[(3-chloro-4-methoxybenzyl)amino]-2-[2-(hydroxymethyl)-1-pyrrolidinyl]-N-(2-pyrimidinylmethyl)-5-pyrimidinecarboxamide], the “mean reduction in Cmax” value in data set [1] (100 mg with a high fat meal) is 24%; in data set [1] (200 mg with a high fat meal), 39%. In data set [1] (result in words, mainly CYP3A4, minor extent CYP2C isoform), the route of clearance entry is on record as “cleared predominantly by hepatic metabolism”. The “decrease in AUC” value in data set [1] (taken with a high fat meal) is reported as about 3.8%. Besides, the solubility – broadly, how much of the substance goes into solution per volume – is under 0.05 µg/mL in data set [2]; over 199000 µg/mL in data set [3] (phosphate buffer, aqueous buffer, Solution 1, 0.1M KH2PO4, pH 0.999); 35000 µg/mL (≈ 72300 µM) in data set [3] (phosphate buffer, aqueous buffer, Solution 2, 0.1M KH2PO4, pH 2.00); 1700 µg/mL (≈ 3510 µM) in data set [3] (phosphate buffer, aqueous buffer, Solution 3, 0.1M KH2PO4, pH 3.00); 1.28 µg/mL (≈ 2.64 µM) in data set [3] (phosphate buffer, aqueous buffer, Solution 6, 0.1M KH2PO4, pH 6.00); 0.233 µg/mL (≈ 0.481 µM) in data set [3] (phosphate buffer, aqueous buffer, Solution 7, 0.1M KH2PO4, pH 7.00). Moreover, the solubility was 0.052 µg/mL (≈ 0.107 µM) in data set [3] (phosphate buffer, aqueous buffer, Solution 8, 0.1M KH2PO4, pH 8.00); 0.0568 µg/mL (≈ 0.117 µM) in data set [3] (phosphate buffer, aqueous buffer, Solution 11, 0.1M KH2PO4, pH 11.0); under 0.05 µg/mL in data set [3] (phosphate buffer, aqueous buffer, Solution 12, 0.1M KH2PO4, pH 12.0); 344 µg/mL (≈ 711 µM) in data set [3] (sodium acetate buffer, aqueous buffer, Solution 4, 0.1M NaOAc, pH 4.00); 19.5 µg/mL (≈ 40.3 µM) in data set [3] (sodium acetate buffer, aqueous buffer, Solution 5, 0.1M NaOAc, pH 5.00); under 0.05 µg/mL in data set [3] (sodium carbonate buffer, aqueous buffer, Solution 9, 0.1M Na2CO3, pH 9.00). The compound further returned a solubility in data set [3] (water, ASTM Type II H2O, no buffer) of 0.139 µg/mL (≈ 0.287 µM).
